The record followed here is patent US20250031679A1, “SCREENING METHOD OF PROBIOTIC AND ACTIVE SUBSTANCE FOR PROMOTING RE[…] AND USE” (Xuzhou Medical University, priority 2023, published 2025).

For this data set, the system named is wild-type N2 C. elegans.

Description: The synchronized L1-stage nematodes were diluted to 20 to 30 nematodes/10 μL. The L1-stage C. elegans was collected in the S broth and cultured in a 96-well plate (365 μL/well). 165 μL of medium, 20 μL of different concentrations of CTX treatment groups, 10 μL of L1-stage nematodes, and 5 μL of OP50 were added in sequence into the 96-well plate, and the nematodes were cultured in a biological incubator at 20° C. for 72 h, where each concentration was set with 10 groups in parallel.
The CTX was set up in three exposure groups from low to high, with concentrations being 500 μg/mL, 1 mg/mL, and 2 mg/mL. At the same time, a blank control was set up.
The nematodes treated with different concentrations of drugs were transferred to NGM, and only one nematode was placed on each medium. The one nematode was picked to a new medium every day with a worm picker. After nematodes produced by this one nematode on the old medium grew to adults, the number of nematodes on the NGM plates with different concentrations of CTX was counted until this one nematode no longer lay eggs. A sum of the number of nematodes exchanged every day was the number of eggs laid and hatched in a whole reproductive cycle of the nematode, and the reproductive capacity of the nematode was determined based on this.
L1-stage C. elegans was obtained according to the protocol in Example 1, and was treated with the CTX at a concentration of 1 mg/mL according to Example 1. Effect of treatment time on the reproductive capacity of the C. elegans was investigated.
Nematodes in L1 to L4 stages were used to construct models and the rest of the steps were conducted according to the method in Example 1.
At 20° C. a blank control group and a CTX treatment group were given pure OP50 bacterial solution and 1 mg/mL CTX/OP50 bacterial solution, respectively. Food were supplemented every 24 h, and whether the nematodes survived normally was observed. After treated in S broth for 72 h, the nematodes in the blank group and the CTX treatment group were transferred to NGM with food OP50, and one nematode was placed on each medium. The one nematode was picked to a new medium every day with a worm picker After nematodes produced by this one nematode on the old medium grew to adults, the number of nematodes on NGM plates of the blank group and the CTX treatment group was counted until this one nematode no longer lay eggs.

With `O=P1(N(CCCl)CCCl)NCCCO1` (centres unmarked) [CTX, cyclophosphamide], under “500 μg/mL to 2 mg/mL, L1-stage, S broth, 72 h”, the “reproductive capacity of C. elegans as a function of CTX concentration” value was “decreased with the increase of concentration”. For the same compound, the “total number of reproduced C. elegans compared with the control” value (CTX 1 mg/mL, 48 h to 96 h treatment) is “significantly reduced”. For the setting “CTX 1 mg/mL, L1-stage nematodes, S broth, 20° C., 72 h”, the “reduction of reproductive capacity (total number of nematodes reproduced) compared with blank control group” value is 50%. Also, the “total reproduced C. elegans” value (CTX 1 mg/mL, treated for 72 h) is on record as “reduced to the minimum”. Moreover, the fecundity of nematodes result (drug treatment at different larval stages L1 to L4) is recorded as “significantly reduce the fecundity”.
